The nature of data set [1]: Binary supramolecular self-assembly systems of polymer and target: guest concentration over incubation time (Comparative Example 2). Type of data set: physicochemical. Here is the method:
Experiments were conducted according to the steps in Comparative Example 1, and quantitative analysis was carried out using the analytical method for each target to investigate the regulation ability […] stacking.

Data set [2] can be described thus: Guest molecule concentration after incubation in initial medium without polymer (Comparative Example 1). Type of data set: physicochemical. The following applies: 37° C. Here is the method: pH 2.0 hydrochloric acid, pH 4.5 acetate, and pH 6.5, pH 6.8, or pH 7.4 phosphate buffer solutions were prepared. The selection of each initial medium followed the principle that the solubility in the initial medium of the selected targets (or active ingredients) should low enough, but should meet the detection sensitivity and accuracy requirements of the corresponding analytical methods. Each buffer as initial media was placed in a 50 ml test tube with a stopper, shaken in a constant temperature air shaker at 37° C.±0.5° C., with an amplitude of 200 rpm, and incubated for 1 hour. […] Samples were taken at 0.5 h, 3 h and 6 h after incubation, centrifuged at 37° C., 13000 rpm for 5 minutes, and the supernatant was diluted at least 10 times with the mobile phase under the target analyte analytical method, filtered, the initial filtrate was discarded, and the continued filtrate was used as the test solution for injection analysis. The corresponding HPLC method under each target object item in Table 8 was used to determine the content of each target substance. When the solubility of the target in the initial medium is below the quantitative limit of the analytical method, a small amount of surfactant, such as sodium dodecyl sulfate (SDS), Tween20, or Tween80, can be added appropriately.
The above targets were incubated at 37° C.±0.5° C. for different time in an initial medium without any polymer. Each solid target formed by molecular stacking was removed by centrifugation, and the supernatant was analyzed using the HPLC method under each target item (see Table 8). The theoretical addition concentration of each target when its supramolecular self-assembly system was built was determined by its maximum dose in clinical use.

For data set [3] the following is noted: cited from earlier work.
[4] abbreviates: binary system with 0.5% polymer 101, incubation 0.5 h.
[5] abbreviates: binary system with 0.5% polymer 101, incubation 3 h.
[6] abbreviates: binary system with 0.5% polymer 101, incubation 6 h.
Setting [7] is: binary system with 0.5% polymer 102, incubation 0.5 h.
Setting [8] is: binary system with 0.5% polymer 102, incubation 3 h.
Where [9] appears, read: binary system with 0.5% polymer 102, incubation 6 h.
[10] abbreviates: binary system with 0.5% polymer 103, incubation 0.5 h.
The mark [11] stands for this setting: binary system with 0.5% polymer 103, incubation 3 h.
Where [12] appears, read: binary system with 0.5% polymer 103, incubation 6 h.
Where [13] appears, read: binary system with 0.5% polymer 106, incubation 0.5 h.
The mark [14] stands for this setting: binary system with 0.5% polymer 106, incubation 3 h.
The mark [15] stands for this setting: binary system with 0.5% polymer 106, incubation 6 h.
Setting [16] is: binary system with 0.5% polymer 107, incubation 0.5 h.
Where [17] appears, read: binary system with 0.5% polymer 107, incubation 3 h.
Setting [18] is: binary system with 0.5% polymer 107, incubation 6 h.
[19] abbreviates: binary system with 0.5% polymer 110, incubation 0.5 h.
Setting [20] is: binary system with 0.5% polymer 110, incubation 3 h.
The mark [21] stands for this setting: binary system with 0.5% polymer 110, incubation 6 h.

`COC1=CC(=O)C[C@@H](C)[C@]12Oc1c(Cl)c(OC)cc(OC)c1C2=O` [Griseofulvin, griseofulvin]: the “Concentration of the target in the solution measured after different incubation time” value (shortened to “Concentration … after different incubation time”) in data set [1] (setting [4]) was 221000 ng/mL; in data set [1] (setting [5]) it was 187900 ng/mL; in data set [1] (setting [6]), 171700 ng/mL; in data set [1] (setting [7]), 24100 ng/mL; in data set [1] (setting [8]), 23200 ng/mL; in data set [1] (setting [9]), 28600 ng/mL. Besides, the “Concentration … after different incubation time” value was found to be 51800 ng/mL in data set [1] (setting [10]); 39800 ng/mL in data set [1] (setting [11]); 39100 ng/mL in data set [1] (setting [12]); 67900 ng/mL in data set [1] (setting [13]); 62800 ng/mL in data set [1] (setting [14]); 60700 ng/mL in data set [1] (setting [15]). The “Concentration … after different incubation time” value in data set [1] (setting [16]) was 109200 ng/mL; in data set [1] (setting [17]) it was 93900 ng/mL; in data set [1] (setting [18]), 88600 ng/mL; in data set [1] (setting [19]), 27100 ng/mL; in data set [1] (setting [20]) it was 23600 ng/mL; in data set [1] (setting [21]) it was 26300 ng/mL. For the same compound, the “Concentration of guest molecule measured after different incubated time” value (“Concentration … after different incubated time” for short) in data set [2] (0.5 h, 0.1% SDS in pH 6.8 phosphate buffer) stood at 35600 ng/mL; in data set [2] (3 h, 0.1% SDS in pH 6.8 phosphate buffer), 27400 ng/mL; in data set [2] (6 h, 0.1% SDS in pH 6.8 phosphate buffer), 24100 ng/mL. In data set [3], the “LogD7.4 or Log P” value is given as 2.17.
Turning to `CCc1cc2c(cc1N1CCC(N3CCOCC3)CC1)C(C)(C)c1[nH]c3cc(C#N)ccc3c1C2=O` [Alectinib, alectinib], the “Concentration … after different incubation time” value was 45800 ng/mL in data set [1] (setting [4]); 31000 ng/mL in data set [1] (setting [5]); 9400 ng/mL in data set [1] (setting [6]); 51500 ng/mL in data set [1] (setting [7]); 47500 ng/mL in data set [1] (setting [8]); 45900 ng/mL in data set [1] (setting [9]). In addition, the “Concentration … after different incubation time” value in data set [1] (setting [10]) is 1000 ng/mL; in data set [1] (setting [11]), 900 ng/mL; in data set [1] (setting [12]), 1300 ng/mL; in data set [1] (setting [13]), 1400 ng/mL; in data set [1] (setting [14]) it was 2100 ng/mL; in data set [1] (setting [15]), 1900 ng/mL. Besides, the “Concentration … after different incubation time” value in data set [1] (setting [16]) was determined as 1500 ng/mL; in data set [1] (setting [17]), 800 ng/mL; in data set [1] (setting [18]), 2900 ng/mL; in data set [1] (setting [19]), 1900 ng/mL; in data set [1] (setting [20]), 1600 ng/mL; in data set [1] (setting [21]), 1300 ng/mL. The “Concentration … after different incubated time” value in data set [2] (0.5 h, pH 6.8 phosphate buffer) was determined as 2500 ng/mL; in data set [2] (3 h, pH 6.8 phosphate buffer), 10200 ng/mL; in data set [2] (6 h, pH 6.8 phosphate buffer), 2200 ng/mL. Further, the “LogD7.4 or Log P” value in data set [3] was 4.75.
In the case of `CC#CC(=O)N1CCC[C@H]1c1nc(-c2ccc(C(=O)Nc3ccccn3)cc2)c2c(N)nccn12` [Acalabrutinib, acalabrutinib], the “Concentration … after different incubation time” value worked out at 209100 ng/mL in data set [1] (setting [4]); 193900 ng/mL in data set [1] (setting [5]); 197800 ng/mL in data set [1] (setting [6]); 566600 ng/mL in data set [1] (setting [7]); 580900 ng/mL in data set [1] (setting [8]); 608200 ng/mL in data set [1] (setting [9]). Moreover, the “Concentration … after different incubation time” value in data set [1] (setting [10]) was 292100 ng/mL; in data set [1] (setting [11]), 321400 ng/mL; in data set [1] (setting [12]), 246400 ng/mL; in data set [1] (setting [13]), 184100 ng/mL; in data set [1] (setting [14]), 124300 ng/mL; in data set [1] (setting [15]) it was 159400 ng/mL. In addition, the “Concentration … after different incubation time” value in data set [1] (setting [16]) is 497800 ng/mL; in data set [1] (setting [17]), 171600 ng/mL; in data set [1] (setting [18]), 167100 ng/mL; in data set [1] (setting [19]) it was 427600 ng/mL; in data set [1] (setting [20]) it was 429700 ng/mL; in data set [1] (setting [21]), 460800 ng/mL. Further, the “Concentration … after different incubated time” value in data set [2] (0.5 h, pH 7.4 phosphate buffer) stood at 106000 ng/mL; in data set [2] (3 h, pH 7.4 phosphate buffer) it was 87600 ng/mL; in data set [2] (6 h, pH 7.4 phosphate buffer), 87600 ng/mL. Also, the “LogD7.4 or Log P” value in data set [3] was 2.56.
Regarding `O=C1[C@@H]2[C@H]3CC[C@H](C3)[C@@H]2C(=O)N1C[C@@H]1CCCC[C@H]1CN1CCN(c2nsc3ccccc23)CC1` [Lurasidone, lurasidone], the “Concentration … after different incubation time” value is 13200 ng/mL in data set [1] (setting [4]); 13500 ng/mL in data set [1] (setting [5]); 9400 ng/mL in data set [1] (setting [6]); 15300 ng/mL in data set [1] (setting [7]); 12700 ng/mL in data set [1] (setting [8]); 13400 ng/mL in data set [1] (setting [9]). The “Concentration … after different incubation time” value in data set [1] (setting [10]) is 7000 ng/mL; in data set [1] (setting [11]), 5200 ng/mL; in data set [1] (setting [12]), 4000 ng/mL; in data set [1] (setting [13]) it was 4100 ng/mL; in data set [1] (setting [14]), 3100 ng/mL; in data set [1] (setting [15]) it was 1800 ng/mL. Besides, the results for the “Concentration … after different incubation time” value in data set [1] (setting [16]), in data set [1] (setting [17]) and in data set [1] (setting [18]) were 3200 ng/mL, 2400 ng/mL and 1700 ng/mL, respectively. The “LogD7.4 or Log P” value in data set [3] is on record as 3.43.
